Measured values as given in patent US8106055B2, “Substituted amide compounds” (Gruenenthal GmbH, priority 2007, dated 2012).

Legend:
[1] = target: T1, serotonin (5-HT) reuptake (Rattus norvegicus, UniProt P31652); test: Inhibition of serotonin (5HT) reuptake in synaptosomes from rat brain; type: biochemical; details: test concentration of 10 μM
T1 construct: synaptosomes are freshly isolated from areas of the rat brain; from tissue; host or cells: rat brain synaptosomes (P2 fraction)
Summary of the method: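 Compounds screened at 10 μM and reported as percent inhibition of serotonin uptake. Uptake measured in a freshly prepared P2 synaptosomal fraction from rat brain.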

[2] = target: T2, human bradykinin 1 receptor (B1R) (Homo sapiens, UniProt P46663); test: Functional investigation on the human bradykinin 1 receptor (B1R), Ca2+ FLIPR assay in CHO K1 hB1R cells; type: cell-based; details: B1R antagonism human; test substance 10 μM; Ca2+ FLIPR, CHO K1 hB1R cells
T2 construct: expressed in transfected cells; host or cells: CHO K1 cells
T2 sequence (P46663 1-353): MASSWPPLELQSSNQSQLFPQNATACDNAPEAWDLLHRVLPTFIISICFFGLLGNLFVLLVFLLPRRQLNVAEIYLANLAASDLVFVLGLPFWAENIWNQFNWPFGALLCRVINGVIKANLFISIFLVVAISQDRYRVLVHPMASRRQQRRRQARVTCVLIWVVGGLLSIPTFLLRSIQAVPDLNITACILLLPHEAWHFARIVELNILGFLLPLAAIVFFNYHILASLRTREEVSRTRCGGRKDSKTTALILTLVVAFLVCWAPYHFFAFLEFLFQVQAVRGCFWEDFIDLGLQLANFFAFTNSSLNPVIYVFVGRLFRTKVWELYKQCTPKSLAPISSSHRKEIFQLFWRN
Summary of the method: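 Peak Ca2+-dependent fluorescence in B1R-transfected CHO K1 cells measures antagonism of an EC80 agonist challenge given 10-20 min after compound. Agonist is Lys-Des-Arg9-bradykinin for human, Des-Arg9-bradykinin for rat receptor.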

T1 sequence (P31652 whole entry): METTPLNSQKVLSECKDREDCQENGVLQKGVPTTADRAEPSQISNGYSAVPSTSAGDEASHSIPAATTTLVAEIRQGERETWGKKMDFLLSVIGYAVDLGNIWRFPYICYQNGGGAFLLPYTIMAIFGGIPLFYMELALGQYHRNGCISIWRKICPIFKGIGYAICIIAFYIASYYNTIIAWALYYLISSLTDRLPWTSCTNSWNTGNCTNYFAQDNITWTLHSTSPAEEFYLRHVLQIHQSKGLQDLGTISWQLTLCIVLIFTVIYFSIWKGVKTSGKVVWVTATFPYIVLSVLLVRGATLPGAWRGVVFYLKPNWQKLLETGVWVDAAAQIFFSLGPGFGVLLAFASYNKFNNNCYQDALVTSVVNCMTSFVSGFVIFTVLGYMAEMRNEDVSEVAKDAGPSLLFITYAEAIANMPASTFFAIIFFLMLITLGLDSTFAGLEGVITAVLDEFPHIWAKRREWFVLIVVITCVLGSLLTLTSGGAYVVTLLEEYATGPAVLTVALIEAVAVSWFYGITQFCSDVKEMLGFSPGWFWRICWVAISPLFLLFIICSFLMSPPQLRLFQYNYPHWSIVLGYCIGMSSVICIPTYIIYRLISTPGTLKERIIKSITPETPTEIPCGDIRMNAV

| Structure (SMILES) | 5-HT (inhibition of reuptake of serotonin, % inhibition) [1] [%] | B1R Ant. h [10 μM] % Inhibition [2] [%] |
| --- | --- | --- |
| COc1ccc(S(=O)(=O)N2CCC(OCC(=O)NCCC3CCC(C(c4ccc(Cl)cc4)N(C)C)CC3)C2)cc1OC (centres unmarked) [Example 338] | 86 | −3 |
| CN(C)C(c1ccc(F)cc1)C1CCC(CNC(=O)COC2CCCCC2N(C)S(=O)(=O)c2ccc(Cl)c(Cl)c2)CC1 (centres unmarked) [Example 359] | 90 | 42 |
| CN(C)C(c1ccc(F)cc1)C1CCC(CCNC(=O)COCC2CCCCN2S(=O)(=O)c2ccc(Cl)c(Cl)c2)CC1 (centres unmarked) [Example 337] | 96 | 51 |
| CN(C)C(c1cccc(F)c1)C1CCC(CCNC(=O)COCCN2CCN(S(=O)(=O)c3ccccc3)CC2)CC1 (centres unmarked) [Example 325] | 96 | 45 |
| COc1cc(C)c(S(=O)(=O)N2CCC(OCC(=O)NCC3CCC(C(c4cccc(F)c4)N(C)C)CC3)CC2)c(C)c1C (centres unmarked) [Example 287] | 96 | 1 |
| CCN(CCOCC(=O)NCC1CCC(C(c2ccc(Cl)cc2)N(C)C)CC1)S(=O)(=O)c1c(C)cc(OC)c(C)c1C (centres unmarked) [Example 310] | 83 | 89 |
| CN(C)C(c1ccc(Cl)cc1)C1CCC(CNC(=O)COC2CCCN(S(=O)(=O)c3ccccc3)C2)CC1 (centres unmarked) [Example 301] | 92 | 2 |
| CN(C)C(c1cccc(F)c1)C1CCC(CNC(=O)COCCN(Cc2ccccc2)S(=O)(=O)c2ccccc2)CC1 (centres unmarked) [Example 296] | 96 | −1 |
| COc1ccc(S(=O)(=O)N2CCCCC2COCC(=O)NCCC2CCC(C(c3ccc(Cl)cc3)N(C)C)CC2)cc1 (centres unmarked) [Example 311] | 95 | 69 |
| CN(C)C(c1cccc(F)c1)C1CCC(CCNC(=O)COC2CCCN(S(=O)(=O)c3ccccc3)C2)CC1 (centres unmarked) [Example 326] | 97 | −5 |
| COc1cc(C)c(S(=O)(=O)N(C)CCOCC(=O)NCC2CCC(C(c3ccc(Cl)cc3)N(C)C)CC2)c(C)c1C (centres unmarked) [Example 298] | 79 | 103 |
| CN(C)C(c1cccc(F)c1)C1CCC(CNC(=O)COC2CCCN(S(=O)(=O)c3ccccc3)C2)CC1 (centres unmarked) [Example 309] | 94 | −4 |
| CN(C)C(c1ccc(F)cc1)C1CCC(NC(=O)COC2CCN(S(=O)(=O)c3ccc(Cl)cc3Cl)C2)CC1 (centres unmarked) [Example 290] | 89 | 37 |
| COc1ccc(S(=O)(=O)N2CCCCC2CCOCC(=O)NCC2CCC(C(c3ccc(Cl)cc3)N(C)C)CC2)cc1 (centres unmarked) [Example 312] | 89 | 71 |
| CN(C)C(c1cccc(F)c1)C1CCC(NC(=O)COCCN(C)S(=O)(=O)c2cccc(C(F)(F)F)c2)CC1 (centres unmarked) [Example 297] | 86 | 15 |
| COc1ccc(S(=O)(=O)N2CCCCC2COCC(=O)NC2CCC(C(c3cccc(F)c3)N(C)C)CC2)c(OC)c1 (centres unmarked) [Example 322] | 78 | −14 |
| CN(C)C(c1ccc(F)cc1)C1CCC(NC(=O)COCCN(C)S(=O)(=O)c2ccc(OC(F)(F)F)cc2)CC1 (centres unmarked) [Example 361] | 87 | 3 |

| Structure (SMILES) | 5-HT (inhibition of reuptake of serotonin, % inhibition) [1] [%] | B1R Ant. h [10 μM] % Inhibition [2] [%] |
| --- | --- | --- |
| CN(C)C(c1ccc(Cl)cc1)C1CCC(CCNC(=O)COCCN(C)S(=O)(=O)c2ccc(Cl)cc2)CC1 (centres unmarked) [Example 347] | 93 | 85 |
| COc1cc(C)c(S(=O)(=O)N(C)CCOCC(=O)NCCC2CCC(C(c3ccc(Cl)cc3)N(C)C)CC2)c(C)c1C (centres unmarked) [Example 317] | 88 | 103 |
| COc1ccc(S(=O)(=O)N2CCCC2COCC(=O)NCC2CCC(C(c3ccc(Cl)cc3)N(C)C)CC2)cc1 (centres unmarked) [Example 351] | 97 | 52 |
| CN(C)C(c1ccc(Cl)cc1)C1CCC(CNC(=O)COCCN(C)S(=O)(=O)c2c(Cl)cc(Cl)cc2Cl)CC1 (centres unmarked) [Example 318] | 91 | 104 |
| CN(C)C(c1ccc(F)cc1)C1CCC(NC(=O)COC2CCN(S(=O)(=O)c3cccc(C(F)(F)F)c3)C2)CC1 (centres unmarked) [Example 330] | 90 | −6 |
| COc1ccc(S(=O)(=O)N2CCCCC2COCC(=O)NCC2CCC(C(c3cccc(F)c3)N(C)C)CC2)cc1OC (centres unmarked) [Example 329] | 91 | −17 |
| COc1ccc(S(=O)(=O)N2CCCCC2CCOCC(=O)NCC2CCC(C(c3ccc(F)cc3)N(C)C)CC2)cc1 (centres unmarked) [Example 350] | 92 | 57 |
| COc1ccc(S(=O)(=O)N2CCCCC2COCC(=O)NCCC2CCC(C(c3cccc(F)c3)N(C)C)CC2)c(OC)c1 (centres unmarked) [Example 281] | 89 | 0 |
| CN(C)C(c1ccc(Cl)cc1)C1CCC(CNC(=O)COCCN(C)S(=O)(=O)c2ccc(Cl)cc2)CC1 (centres unmarked) [Example 284] | 87 | 48 |
| CN(C)C(c1cccc(F)c1)C1CCC(CNC(=O)COCCN(C)S(=O)(=O)c2ccc(OC(F)(F)F)cc2)CC1 (centres unmarked) [Example 303] | 83 | −19 |
| CN(C)C(c1cccc(F)c1)C1CCC(CNC(=O)COCCN(C)S(=O)(=O)c2cccc(C(F)(F)F)c2)CC1 (centres unmarked) [Example 302] | 92 | 38 |
| Cc1cc(C)c(S(=O)(=O)N2CCC(OCC(=O)NC3CCC(C(c4ccc(F)cc4)N(C)C)CC3)C2)c(C)c1 (centres unmarked) [Example 332] | 88 | 57 |
| CN(C)C(c1cccc(F)c1)C1CCC(CNC(=O)COCCN2CCN(S(=O)(=O)c3ccccc3)CC2)CC1 (centres unmarked) [Example 308] | 93 | −1 |
| CN(C)C(c1cccc(F)c1)C1CCC(NC(=O)COC2CCN(S(=O)(=O)c3ccccc3)CC2)CC1 (centres unmarked) [Example 335] | 93 | −8 |
| COc1ccc(S(=O)(=O)N2CCCCC2COCC(=O)NCC2CCC(C(c3ccc(Cl)cc3)N(C)C)CC2)cc1 (centres unmarked) [Example 321] | 86 | 94 |
| CN(C)C(c1ccccc1)C1CCC(CNC(=O)COC2CCN(S(=O)(=O)c3ccccc3)CC2)CC1 (centres unmarked) [Example 300] | 94 | −35 |
| COc1cc(C)c(S(=O)(=O)N(C)CCOCC(=O)NCCC2CCC(C(c3ccc(F)cc3)N(C)C)CC2)c(C)c1C (centres unmarked) [Example 354] | 90 | 104 |
